Assay results from paper PMC3556224 (Journal of natural products, 2013).

Assays:
hAChE = hAChE (Homo sapiens, UniProt P22303); experiment: Inhibition of hAChE with acetylthiocholine as substrate; type: biochemical
hBChE = hBChE (Homo sapiens, UniProt P06276); experiment: Inhibition of hBChE with butyrylthiocholine as substrate; type: biochemical
hiCE = biological target: T1, hiCE (Homo sapiens, UniProt O00748); type: cell-based; settings: 4-MUA, U373MG cells
T1 sequence (O00748 27-559): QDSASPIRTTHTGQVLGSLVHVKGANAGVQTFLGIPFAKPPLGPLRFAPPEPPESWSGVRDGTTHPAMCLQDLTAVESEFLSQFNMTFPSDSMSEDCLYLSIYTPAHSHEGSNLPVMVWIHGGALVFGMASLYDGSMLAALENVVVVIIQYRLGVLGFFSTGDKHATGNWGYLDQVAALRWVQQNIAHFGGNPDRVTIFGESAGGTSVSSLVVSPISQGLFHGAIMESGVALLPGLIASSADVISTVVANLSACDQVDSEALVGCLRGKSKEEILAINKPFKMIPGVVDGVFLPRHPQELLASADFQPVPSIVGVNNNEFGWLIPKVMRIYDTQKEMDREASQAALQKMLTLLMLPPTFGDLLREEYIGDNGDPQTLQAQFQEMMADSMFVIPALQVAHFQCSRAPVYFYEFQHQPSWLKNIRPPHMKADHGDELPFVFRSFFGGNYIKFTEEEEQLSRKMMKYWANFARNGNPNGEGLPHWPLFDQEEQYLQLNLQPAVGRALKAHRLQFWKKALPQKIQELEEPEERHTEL

Chain of hAChE (P22303 32-614): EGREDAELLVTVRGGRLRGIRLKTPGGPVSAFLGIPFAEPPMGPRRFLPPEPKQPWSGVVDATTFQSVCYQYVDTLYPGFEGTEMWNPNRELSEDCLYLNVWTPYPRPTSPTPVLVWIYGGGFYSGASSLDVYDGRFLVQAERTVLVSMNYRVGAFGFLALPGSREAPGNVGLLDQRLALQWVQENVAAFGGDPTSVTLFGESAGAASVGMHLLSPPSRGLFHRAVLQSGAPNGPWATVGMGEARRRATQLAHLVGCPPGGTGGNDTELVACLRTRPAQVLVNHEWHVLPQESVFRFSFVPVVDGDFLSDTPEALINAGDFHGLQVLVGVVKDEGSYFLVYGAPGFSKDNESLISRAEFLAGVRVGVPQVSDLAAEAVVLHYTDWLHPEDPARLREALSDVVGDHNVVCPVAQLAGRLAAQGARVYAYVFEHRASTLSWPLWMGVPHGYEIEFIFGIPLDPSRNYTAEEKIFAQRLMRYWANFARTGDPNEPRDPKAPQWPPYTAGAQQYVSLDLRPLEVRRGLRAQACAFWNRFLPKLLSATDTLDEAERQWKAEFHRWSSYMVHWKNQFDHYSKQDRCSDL
Chain of hBChE (P06276 29-602): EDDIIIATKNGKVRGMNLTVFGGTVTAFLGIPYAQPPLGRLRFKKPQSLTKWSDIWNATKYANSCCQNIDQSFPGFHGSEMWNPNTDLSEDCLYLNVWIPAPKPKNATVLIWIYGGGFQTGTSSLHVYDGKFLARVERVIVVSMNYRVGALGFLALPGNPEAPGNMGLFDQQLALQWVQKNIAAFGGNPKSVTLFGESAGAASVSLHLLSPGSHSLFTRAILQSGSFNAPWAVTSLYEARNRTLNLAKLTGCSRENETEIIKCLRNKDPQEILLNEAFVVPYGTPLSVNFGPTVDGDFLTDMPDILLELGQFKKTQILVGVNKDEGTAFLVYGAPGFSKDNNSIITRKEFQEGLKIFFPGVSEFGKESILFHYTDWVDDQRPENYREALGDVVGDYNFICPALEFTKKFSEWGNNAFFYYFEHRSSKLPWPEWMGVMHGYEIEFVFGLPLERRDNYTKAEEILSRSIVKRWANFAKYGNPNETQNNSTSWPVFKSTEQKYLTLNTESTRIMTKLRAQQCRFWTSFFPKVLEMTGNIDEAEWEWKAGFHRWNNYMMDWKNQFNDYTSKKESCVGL

`Cc1coc2c1C(=O)C(=O)c1c-2ccc2c1CCCC2(C)C` [compound 7, 1,6,6-trimethyl-6,7,8,9-tetrahydrophenanthro[1,2-b] furan-10,11-dione] was tested, and the “inhibition of hAChE (in words)” value (hAChE) was “did not inhibit”, the Ki (hBChE) was > 100 µM and the “inhibition of hBChE (in words)” value (hBChE) was “did not inhibit”.

In the case of `C[C@H]1COC2=C1C(=O)C(=O)c1c2ccc2c1CCCC2(C)C` [compound 24, 1,2,6,7,8,9-hexahydro-1,6,6-trimethyl-(1R)-phenanthro [1,2-b] furan-10,11-dione], the “inhibition of hAChE (in words)” value (hAChE) is reported as “modest activity” and the “inhibition of hBChE (in words)” value (hBChE) is reported as “not BChE”.

In the case of `Cc1cccc2c3c(ccc12)C1=C(C(=O)C3=O)[C@@H](C)CO1` [compound 22, 1,2-dihydro-1,6-dimethyl-(1R)-phenanthro [1,2-b] uran-10,11-dione], the “inhibition of hAChE (in words)” value (hAChE) is reported as “modest activity”, the Ki (hBChE) is reported as > 100 µM and the “inhibition of hBChE (in words)” value (hBChE) is reported as “not BChE”.

For `Cc1c(S(=O)(=O)[O-])oc2c1C(=O)C(=O)c1c-2ccc2c1CCCC2(C)C.[Na+]` [compound 25, 6,7,8,9,10,11-hexahydro-1,6,6-trimethyl-10,11-dioxo-phenanthro[1,2-b] furan-2-sulfonic acid, sodium salt], the “intracellular inhibition of hiCE (in words)” value (hiCE) was “failed to inhibit”.

In the case of `Cc1coc2c1C(=O)C(=O)c1c-2ccc2c(C)cccc12` [compound 21, 1,6-dimethyl-phenanthro [1,2-b] furan-10,11-dione], the Ki (hBChE) is reported as > 100 µM.
